{
  "source": "paper PMC12692291",
  "about": "“Development and In Vitro Evaluation of [^64Cu]Cu-NOTA-TP-PSMA, a Novel Radiotheranostic Agent Against Prostate Cancer” (International Journal of Molecular Sciences, 2025)",
  "key": {"LNCaP cells [1]": {"test_system": "LNCaP cells", "format": "cell-based", "protocol": "(§1) The cytotoxicity of compounds 1–3, ^natCu-NOTA-TP-PSMA, and cisplatin (platinum-based drug) were assessed with PrestoBlue, a resazurin-based method to assess mitochondrial function in LNCaP and HEK-293 cells at 24, 48, and 72 h. Effective concentration (EC50) values summarized in Table 3 were calculated from the dose–response curves of each compound (Figure S7).\n(§2) Cytotoxicity was evaluated using a resazurin-based assay (PrestoBlue) in 96-well plates. LNCaP (15,000 cells/well) and HEK-293 (10,000 cells/well) were seeded and incubated for 72 h. Cells were then treated with serial dilutions of [^64Cu]Cu-NOTA-TP-PSMA and controls for 24, 48, or 72 h. After treatment, cells were rinsed with PBS and incubated with PrestoBlue reagent for 40 min. Fluorescence was measured at 570 nm (excitation) and 610 nm (emission). Background readings from blank wells were subtracted. Cell viability was calculated relative to untreated controls. IC50 values were determined using dose–response curves. Controls included [^64Cu]Cu-NOTA-TP, [^64Cu]Cu-NOTA-PSMA, ^natCu-NOTA-TP-PSMA, and cisplatin (0–500 µM in 0.9% saline). All assays were performed in triplicate and all data presented in Results are the average of three independent experiments. TP conjugates were dissolved in 1% DMSO and diluted in saline. Inhibitory concentration 50 (IC50) values were calculated to quantify the effectiveness of the compounds."}, "HEK-293 cells [2]": {"test_system": "HEK-293 cells", "assay": "PrestoBlue cytotoxicity assay in HEK-293 cells", "format": "cell-based, human", "details": "read-out: EC50 HEK293", "protocol": "as §1, §2"}, "[3]": {"assay": "Solubility in aqueous media", "format": "physicochemical"}, "LNCaP cells [4]": {"test_system": "LNCaP cells", "assay": "Nuclear localization in LNCaP cells", "format": "cell-based", "protocol": "(§3) To assess nuclear localization, LNCaP and HEK-293 cells were incubated with 1 MBq of [^64Cu]Cu-NOTA-TP-PSMA 1 for 24, 48, and 72 h. Nuclear extraction was performed following a previously established protocol. Following incubation, cells were lysed and fractionated using cytoskeletal buffer to isolate nuclear components. Nuclear and cytoplasmic radioactivity were measured using a HIDEX automatic gamma counter. Data were used to evaluate time-dependent nuclear accumulation of the tracer."}, "LNCaP cells [5]": {"test_system": "LNCaP cells", "assay": "Efflux (retention) study in LNCaP cells", "format": "cell-based", "details": "Table S3 first part (LNCaP)", "protocol": "(§4) Efflux studies were conducted by incubating the cells with the compound for an initial period of 1 h, after which the incubation medium was replaced with fresh, compound-free medium. The retained intracellular radioactivity was then measured at various time points up to 24 h and expressed as the percentage of retention relative to the 0-h time point, defined as the time immediately after medium replacement."}, "HEK-293 cells [6]": {"test_system": "HEK-293 cells", "assay": "Nuclear localization in HEK-293 cells", "format": "cell-based, human", "protocol": "as §3"}, "LNCaP cells [7]": {"test_system": "LNCaP cells", "assay": "Cellular uptake and internalization in LNCaP cells", "format": "cell-based", "details": "LNCaP, 24 h, 37 °C, 1 nM", "protocol": "LNCaP cells (1 × 10^5 cells/well) were seeded into 24-well plates and incubated for 72 h. Cells were treated with 1nM [^64Cu]Cu-NOTA-TP-PSMA or control monomers ([^64Cu]Cu-NOTA-TP and [^64Cu]Cu-NOTA-PSMA), each containing 0.1 MBq of radioactivity in RPMI-1640 medium.\nUptake and internalization were assessed at multiple time points (30 min to 24 h). At each timepoint, cells were washed with cold PBS, detached with trypsin, and counted using a hemocytometer. For internalization studies, surface-bound radioactivity was removed using 50 mM glycine-HCl buffer (pH 2.2) for 5 min, followed by additional PBS washes.\nTo investigate the internalization mechanism, parallel experiments were conducted at 4 °C to evaluate passive versus active uptake. Receptor specificity was assessed via blocking assays using 1 µM ^natCu-NOTA-TP-PSMA (1000-fold excess) co-incubated with 1 nM radiolabeled tracer. Post-incubation, intracellular radioactivity was quantified using a HIDEX gamma counter. All results were normalized to 10^6 cells and expressed as percent counts per minute per million cells (%CPM/10^6 cells)."}, "HEK-293 cells [8]": {"test_system": "HEK-293 cells", "assay": "Efflux (retention) study in HEK-293 cells", "format": "cell-based, human", "details": "Table S3 second part (HEK-293)", "protocol": "as §4"}},
  "note": "Read-outs that look alike come from different tables or passages of the source.",
  "data": [
    {"smiles": "N.N.[Cl][Pt][Cl]", "note": "[Cisplatin, cisplatin, reference compound]", "values": [
      {"measurement": "EC50", "setting": "LNCaP cells [1]; 24 h", "result": 81, "unit": "µM"},
      {"measurement": "EC50", "setting": "LNCaP cells [1]; 48 h", "result": 30.4, "unit": "µM"},
      {"measurement": "EC50", "setting": "LNCaP cells [1]; 72 h", "result": 22.9, "unit": "µM"},
      {"measurement": "EC50", "setting": "HEK-293 cells [2]; 24 h", "result": 31.3, "unit": "µM"},
      {"measurement": "EC50", "setting": "HEK-293 cells [2]; 48 h", "result": 41, "unit": "µM"},
      {"measurement": "EC50", "setting": "HEK-293 cells [2]; 72 h", "result": 27.5, "unit": "µM"}
    ]},
    {"smiles": "O=C(O)CC[C@H](NC(=O)N[C@@H](CCCCNC(=O)[C@@H](Cc1ccc2ccccc2c1)NC(=O)[C@H]1CC[C@H](CNC(=O)CNC(=O)COCCOCCNC(=O)CN2CCN(CC(=O)O)CCN(CC(=O)O)CC2)CC1)C(=O)O)C(=O)O", "note": "[^natCu-NOTA-PSMA, metal not drawn]", "values": [
      {"measurement": "solubility", "setting": "[3]", "result": "readily soluble in aqueous media"}
    ]},
    {"smiles": "O=C(O)CC[C@H](NC(=O)N[C@@H](CCCCNC(=O)[C@@H](Cc1ccc2ccccc2c1)NC(=O)C1CCC(CNC(=O)C(CCCCNC(=O)c2cc3[n+]4c(c2)-c2cccc[n+]2[Pt-2]4([Cl])[n+]2ccccc2-3)NC(=O)COCCOCCNC(=O)CN2CCN3CCN(CC2)CC(=O)[O][Cu][O]C(=O)C3)CC1)C(=O)O)C(=O)O", "note": "(stereo partly drawn) [^natCu-NOTA-TP-PSMA]", "values": [
      {"measurement": "solubility", "setting": "[3]", "result": "reduced solubility"}
    ]},
    {"smiles": "O=C(O)CC[C@H](NC(=O)N[C@@H](CCCCNC(=O)[C@@H](Cc1ccc2ccccc2c1)NC(=O)[C@H]1CC[C@H](CNC(=O)CNC(=O)COCCOCCNC(=O)CN2CCN(CC(=O)O)CCN(CC(=O)O)CC2)CC1)C(=O)O)C(=O)O", "note": "[[^64Cu]Cu-NOTA-PSMA 3, metal not drawn]", "values": [
      {"measurement": "fold less cytotoxic than compound 1", "setting": "LNCaP cells [1]", "result": "5–16 fold"},
      {"measurement": "nuclear uptake fold difference LNCaP vs HEK-293", "setting": "LNCaP cells [4]; 24 h", "result": 5.8, "unit": "fold"},
      {"measurement": "nuclear uptake in LNCaP cells", "setting": "LNCaP cells [4]; 48 h", "result": "0.30 ± 0.13", "unit": "%"},
      {"measurement": "nuclear uptake fold difference LNCaP vs HEK-293", "setting": "LNCaP cells [4]; 72 h", "result": 1.5, "unit": "fold"},
      {"measurement": "nuclear uptake in LNCaP cells", "setting": "LNCaP cells [4]; 72 h", "result": "0.35 ± 0.07", "unit": "%"},
      {"measurement": "Nuclear uptake LNCaP", "setting": "LNCaP cells [4]; Table S4, 24 h", "result": "0.44 ± 0.25", "unit": "%ID/10⁶ cells"},
      {"measurement": "Nuclear uptake LNCaP", "setting": "LNCaP cells [4]; Table S4, 48 h", "result": "0.77 ± 1.02", "unit": "%ID/10⁶ cells"},
      {"measurement": "Nuclear uptake LNCaP", "setting": "LNCaP cells [4]; Table S4, 72 h", "result": "0.35 ± 0.07", "unit": "%ID/10⁶ cells"},
      {"measurement": "Retained activity", "setting": "LNCaP cells [5]; 0 h after medium replacement", "result": "100 ± 0", "unit": "%CPM/106 cells"},
      {"measurement": "Retained activity", "setting": "LNCaP cells [5]; 1 h", "result": "54.8 ± 10.0", "unit": "%CPM/106 cells"},
      {"measurement": "Retained activity", "setting": "LNCaP cells [5]; 2 h", "result": "49.6 ± 8.1", "unit": "%CPM/106 cells"},
      {"measurement": "Retained activity", "setting": "LNCaP cells [5]; 4 h", "result": "46.6 ± 8.1", "unit": "%CPM/106 cells"},
      {"measurement": "Retained activity", "setting": "LNCaP cells [5]; 24 h", "result": "39.2 ± 7.9", "unit": "%CPM/106 cells"},
      {"measurement": "nuclear uptake in HEK-293 cells", "setting": "HEK-293 cells [6]; 48 h", "result": "0.13 ± 0.05", "unit": "%"},
      {"measurement": "nuclear uptake in HEK-293 cells", "setting": "HEK-293 cells [6]; 72 h", "result": "0.23 ± 0.04", "unit": "%"},
      {"measurement": "Nuclear uptake HEK-293", "setting": "HEK-293 cells [6]; Table S4, 24 h", "result": "0.07 ± 0.05", "unit": "%ID/10⁶ cells"},
      {"measurement": "Nuclear uptake HEK-293", "setting": "HEK-293 cells [6]; Table S4, 48 h", "result": "0.13 ± 0.05", "unit": "%ID/10⁶ cells"},
      {"measurement": "Nuclear uptake HEK-293", "setting": "HEK-293 cells [6]; Table S4, 72 h", "result": "0.23 ± 0.04", "unit": "%ID/10⁶ cells"},
      {"measurement": "Internalization", "setting": "LNCaP cells [7]", "result": "16.7 ± 1.6", "unit": "%CPM/10^6 cells"},
      {"measurement": "Uptake", "setting": "LNCaP cells [7]", "result": "22.8 ± 1.2", "unit": "%CPM/10^6 cells"},
      {"measurement": "Retained activity", "setting": "HEK-293 cells [8]; 0 h after medium replacement", "result": "100 ± 0", "unit": "%CPM/106 cells"},
      {"measurement": "Retained activity", "setting": "HEK-293 cells [8]; 1 h", "result": "59.4 ± 22.3", "unit": "%CPM/106 cells"},
      {"measurement": "Retained activity", "setting": "HEK-293 cells [8]; 2 h", "result": "45.1 ± 14.5", "unit": "%CPM/106 cells"},
      {"measurement": "Retained activity", "setting": "HEK-293 cells [8]; 4 h", "result": "38.4 ± 4.1", "unit": "%CPM/106 cells"},
      {"measurement": "Retained activity", "setting": "HEK-293 cells [8]; 24 h", "result": "22.0 ± 1.5", "unit": "%CPM/106 cells"}
    ]}
  ]
}
